Legend:
Assay in all cases: relative viability (nuclei count vs DMSO), 5 days (fraction); higher = more cells survive
[1] = test system: HCC-78
Summary of the method: (§1)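 Values are medians from duplicate plates. Each reflects relative viability, defined as the nuclei count of treated wells over that of vehicle wells. Lung cancer cell lines in 1536-well plates were pin-tool dosed one day after seeding with one drug alone or with a fixed anchor-drug dose plus five library-drug doses (not always all listed) in √10 steps, then fixed, stained and imaged at 4× after 5 days.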

[2] = test system: NCI-H1437
Summary of the method: as §1

[3] = test system: NCI-H1975
Summary of the method: as §1

[4] = test system: COR-L23
Summary of the method: as §1

[5] = test system: HCC-15
Summary of the method: as §1

[6] = test system: PC-14
Summary of the method: as §1

[7] = test system: NCI-H1666
Summary of the method: as §1

[8] = test system: COR-L 105
Summary of the method: as §1

[9] = test system: HCC-366
Summary of the method: as §1

[10] = test system: NCI-H1915
Summary of the method: as §1

[11] = test system: HCC-44
Summary of the method: as §1

[12] = test system: NCI-H3122
Summary of the method: as §1

[13] = test system: A-427
Summary of the method: as §1

[14] = test system: LK-2
Summary of the method: as §1

[15] = test system: NCI-H1648
Summary of the method: as §1

[16] = test system: HARA
Summary of the method: as §1

[17] = test system: LCLC-97TM1
Summary of the method: as §1

[18] = test system: NCI-H1944
Summary of the method: as §1

[19] = test system: NCI-H2023
Summary of the method: as §1

[20] = test system: NCI-H2405
Summary of the method: as §1

[21] = test system: NCI-H460
Summary of the method: as §1

[22] = test system: NCI-H1563
Summary of the method: as §1

For `Cc1cn(-c2cc(NC(=O)c3ccc(C)c(Nc4nccc(-c5cccnc5)n4)c3)cc(C(F)(F)F)c2)cn1` [Nilotinib] + Nc1nc2[nH]cc(CCc3ccc(C(=O)N[C@@H](CCC(=O)O)C(=O)O)cc3)c2c(=O)[nH]1 [Pemetrexed] (partner 0.2 µM), the relative viability ([1]; first compound 0.001 µM) was 0.897, the relative viability ([1]; first compound 0.003162 µM) was 0.654 and the relative viability ([1]; first compound 0.01 µM) was 0.836. For the same molecule, the relative viability ([1]; first compound 0.03162 µM) was 0.8, the relative viability ([1]; first compound 0.1 µM) was 0.935 and the relative viability ([2]; first compound 0.001 µM) was 0.28. It also gave a relative viability ([2]; first compound 0.003162 µM) of 0.34, a relative viability ([2]; first compound 0.01 µM) of 0.343 and a relative viability ([2]; first compound 0.03162 µM) of 0.276. It also gave a relative viability ([2]; first compound 0.1 µM) of 0.311, a relative viability ([3]; first compound 0.001 µM) of 0.294 and a relative viability ([3]; first compound 0.003162 µM) of 0.298. For the same molecule, the relative viability ([3]; first compound 0.01 µM) was 0.257, the relative viability ([3]; first compound 0.03162 µM) was 0.211 and the relative viability ([3]; first compound 0.1 µM) was 0.235. For the same molecule, the relative viability ([4]; first compound 0.001 µM) was 0.187, the relative viability ([4]; first compound 0.003162 µM) was 0.183 and the relative viability ([4]; first compound 0.01 µM) was 0.19. For the same molecule, the relative viability ([4]; first compound 0.03162 µM) was 0.163, the relative viability ([4]; first compound 0.1 µM) was 0.163 and the relative viability ([5]; first compound 0.001 µM) was 0.213. The relative viability ([5]; first compound 0.003162 µM) was 0.205, the relative viability ([5]; first compound 0.01 µM) was 0.204 and the relative viability ([5]; first compound 0.03162 µM) was 0.18. For the same molecule, the relative viability ([5]; first compound 0.1 µM) was 0.162, the relative viability ([6]; first compound 0.001 µM) was 0.139 and the relative viability ([6]; first compound 0.003162 µM) was 0.19. For the same molecule, the relative viability ([6]; first compound 0.01 µM) was 0.0904, the relative viability ([6]; first compound 0.03162 µM) was 0.0585 and the relative viability ([6]; first compound 0.1 µM) was 0.0757. The relative viability ([7]; first compound 0.001 µM) was 0.768, the relative viability ([7]; first compound 0.003162 µM) was 0.78 and the relative viability ([7]; first compound 0.01 µM) was 0.846. For the same molecule, the relative viability ([7]; first compound 0.03162 µM) was 0.717, the relative viability ([7]; first compound 0.1 µM) was 0.9 and the relative viability ([8]; first compound 0.001 µM) was 0.975. It also gave a relative viability ([8]; first compound 0.003162 µM) of 1.17, a relative viability ([8]; first compound 0.01 µM) of 1.55 and a relative viability ([8]; first compound 0.03162 µM) of 1.13. The relative viability ([8]; first compound 0.1 µM) was 1.15, the relative viability ([9]; first compound 0.001 µM) was 0.157 and the relative viability ([9]; first compound 0.003162 µM) was 0.129. The relative viability ([9]; first compound 0.01 µM) was 0.163, the relative viability ([9]; first compound 0.03162 µM) was 0.106 and the relative viability ([9]; first compound 0.1 µM) was 0.115. The relative viability ([10]; first compound 0.001 µM) was 0.435, the relative viability ([10]; first compound 0.003162 µM) was 0.427 and the relative viability ([10]; first compound 0.01 µM) was 0.532. It also gave a relative viability ([10]; first compound 0.03162 µM) of 0.449, a relative viability ([10]; first compound 0.1 µM) of 0.438 and a relative viability ([11]; first compound 0.001 µM) of 0.662. For the same molecule, the relative viability ([11]; first compound 0.003162 µM) was 0.574, the relative viability ([11]; first compound 0.01 µM) was 0.613 and the relative viability ([11]; first compound 0.1 µM) was 0.66. For the same molecule, the relative viability ([12]; first compound 0.001 µM) was 0.18, the relative viability ([12]; first compound 0.003162 µM) was 0.226 and the relative viability ([12]; first compound 0.01 µM) was 0.212. The relative viability ([12]; first compound 0.03162 µM) was 0.2, the relative viability ([12]; first compound 0.1 µM) was 0.195 and the relative viability ([13]; first compound 0.003162 µM) was 0.963. It also gave a relative viability ([13]; first compound 0.01 µM) of 0.952, a relative viability ([13]; first compound 0.1 µM) of 0.852 and a relative viability ([14]; first compound 0.001 µM) of 0.184. It also gave a relative viability ([14]; first compound 0.003162 µM) of 0.3, a relative viability ([14]; first compound 0.01 µM) of 0.332 and a relative viability ([14]; first compound 0.03162 µM) of 0.193. The relative viability ([14]; first compound 0.1 µM) was 0.225, the relative viability ([15]; first compound 0.001 µM) was 0.792 and the relative viability ([15]; first compound 0.003162 µM) was 0.685. It also gave a relative viability ([15]; first compound 0.01 µM) of 0.726, a relative viability ([15]; first compound 0.03162 µM) of 0.506 and a relative viability ([15]; first compound 0.1 µM) of 0.685. For the same molecule, the relative viability ([16]; first compound 0.001 µM) was 0.311, the relative viability ([16]; first compound 0.003162 µM) was 0.235 and the relative viability ([16]; first compound 0.01 µM) was 0.198. The relative viability ([16]; first compound 0.03162 µM) was 0.184, the relative viability ([16]; first compound 0.1 µM) was 0.214 and the relative viability ([17]; first compound 0.001 µM) was 0.18. The relative viability ([17]; first compound 0.003162 µM) was 0.165, the relative viability ([17]; first compound 0.01 µM) was 0.175 and the relative viability ([17]; first compound 0.03162 µM) was 0.183. It also gave a relative viability ([17]; first compound 0.1 µM) of 0.0978, a relative viability ([18]; first compound 0.001 µM) of 0.56 and a relative viability ([18]; first compound 0.003162 µM) of 0.519. The relative viability ([18]; first compound 0.01 µM) was 0.566, the relative viability ([18]; first compound 0.03162 µM) was 0.578 and the relative viability ([18]; first compound 0.1 µM) was 0.265. It also gave a relative viability ([19]; first compound 0.001 µM) of 0.213, a relative viability ([19]; first compound 0.003162 µM) of 0.264 and a relative viability ([19]; first compound 0.01 µM) of 0.223. The relative viability ([19]; first compound 0.03162 µM) was 0.189, the relative viability ([19]; first compound 0.1 µM) was 0.14 and the relative viability ([20]; first compound 0.001 µM) was 1.03. The relative viability ([20]; first compound 0.003162 µM) was 0.91, the relative viability ([20]; first compound 0.01 µM) was 0.924 and the relative viability ([20]; first compound 0.03162 µM) was 0.699. For the same molecule, the relative viability ([20]; first compound 0.1 µM) was 0.614, the relative viability ([21]; first compound 0.001 µM) was 0.0733 and the relative viability ([21]; first compound 0.003162 µM) was 0.0599. For the same molecule, the relative viability ([21]; first compound 0.01 µM) was 0.0632, the relative viability ([21]; first compound 0.03162 µM) was 0.0736 and the relative viability ([21]; first compound 0.1 µM) was 0.0505. It also gave a relative viability ([22]; first compound 0.001 µM) of 0.746, a relative viability ([22]; first compound 0.003162 µM) of 0.712 and a relative viability ([22]; first compound 0.01 µM) of 0.796. It also gave a relative viability ([22]; first compound 0.03162 µM) of 0.667 and a relative viability ([22]; first compound 0.1 µM) of 0.552.

From the supplement of paper PMC10307832
